In ChEMBL document CHEMBL1141361, “Niphatoxin C, a cytotoxic tripyridine alkaloid from Callyspongia sp” (J Nat Prod, 2007) one finds Activity and IC50 data, which are given here for one compound.

The structures appear in SMILES notation.

Experiment [1] addresses T1, P2X purinoceptor 7 (Homo sapiens) (UniProt Q99572).
T1 sequence (whole entry): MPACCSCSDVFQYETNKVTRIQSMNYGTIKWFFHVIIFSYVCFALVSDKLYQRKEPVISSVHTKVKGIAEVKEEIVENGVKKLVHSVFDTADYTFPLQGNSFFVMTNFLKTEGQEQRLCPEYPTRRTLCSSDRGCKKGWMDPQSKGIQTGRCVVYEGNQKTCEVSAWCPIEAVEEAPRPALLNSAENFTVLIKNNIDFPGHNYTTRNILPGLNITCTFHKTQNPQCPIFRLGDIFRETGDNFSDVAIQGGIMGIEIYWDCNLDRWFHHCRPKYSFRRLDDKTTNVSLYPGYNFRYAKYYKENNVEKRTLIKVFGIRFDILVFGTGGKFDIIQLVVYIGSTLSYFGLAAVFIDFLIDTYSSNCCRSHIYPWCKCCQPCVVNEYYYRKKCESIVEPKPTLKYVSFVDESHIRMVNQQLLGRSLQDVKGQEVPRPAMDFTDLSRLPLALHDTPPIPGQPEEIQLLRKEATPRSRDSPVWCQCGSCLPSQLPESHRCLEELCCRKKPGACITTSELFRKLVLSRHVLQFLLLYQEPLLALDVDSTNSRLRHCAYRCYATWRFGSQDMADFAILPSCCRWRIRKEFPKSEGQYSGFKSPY
Kind of experiment: Antagonist activity at P2X7 receptor expressed in human THP1 cells assessed as reduction of benzoylbenzoyl adenosine triphosphate-induced pore formation at 10 uM relative to control. It counts as functional, cell-based. More on the design: scale not given: the % may be the effect or the level left. To be noted: THP-1.

For experiment [2], the system named is THP-1. As to the kind of experiment: Cytotoxicity against human THP1 cells at 30 uM. It counts as functional.
Experiment [3] concerns THP-1. Kind of experiment: Cytotoxicity against human THP1 cells at 100 uM. It counts as functional.
The test system of experiment [4] is THP-1. Kind of experiment: Cytotoxicity against human THP1 cells after 21 hrs. To be noted: THP-1, 21 h. It counts as functional, cell-based.
Experiment [5] has as its system THP-1. Kind of experiment: Increase in hemolysin-induced pore formation in human THP1 cells at 10 uM relative to control. It is filed as functional.
The test system of experiment [6] is THP-1. As to the kind of experiment: Increase in hemolysin-induced pore formation in human THP1 cells at 100 uM relative to control. It counts as functional.

What is called IC50 is the midpoint of a concentration-inhibition curve. On to `C(=C/CCCC[n+]1cccc(C/C=C\CCCCCCc2cccnc2)c1)/CCCCCCc1cccnc1` [NIPHATOXIN C], for which the Activity in experiment [1] came to 41%; in experiment [2], 0%; in experiment [3], 99%; in experiment [5], 101%; in experiment [6], 185%. In experiment [4], this compound yielded a 50% inhibitory concentration (IC50) of 11.5 µM.
